Experimental findings from paper PMC8456950, “Structure‐Guided Design of G‐Protein‐Coupled Receptor Polypharmacology” (Angewandte Chemie (International Ed. in English), 2021) are described below.

The target of one experiment is T1, Human D2R (Homo sapiens, UniProt P14416).
T1 construct: expressed in transfected cells; host or cells: CHO-D2R #S20 cell line (membranes)
Briefly: D2R competition binding ([3H]-spiperone displacement). To be noted: radioligand displacement, mean±SEM of three experiments in duplicate; read-out: D2R binding affinity Ki. As to the method: Human D2R competition binding experiments w ere carried out in polypropylene 96-well plates. Each well contained 10 µg of membranes from a CHO-D2R #S20 cell line (protein concentration of 3241 µg/ml), 0.4 nM [3H]-spiperone (80. 2 Ci/mmol, 1 mCi/ml, Perkin […]
The reaction mixture (250 µl/well) was incubated at 25°C for 120 min , after which 200 µL was transferred to a GF/C 96 -well plate (Millipore, Madrid, Spain) pretreated with 0. 5% of PEI and treated with binding buffer (50 mM Tris-HCl, 1 mM EDTA, 5 mM MgCl2, 5 mM KCl, 120 mM NaCl, pH=7.4). The […]
samples were filtered and washed four times with 250 µl wash buffer (50 mM Tris-HCl, 0.9% NaCl, pH=7.4) before measuring in a microplate beta scintillation counter (Microbeta Trilux, PerkinElmer, Madrid, Spain). Three independent exp eriments were carried out to calculate Ki values (n=3). […]
Background: Displacement assays read how much labelled ligand stays bound in the presence of the test substance.

The next experiment addresses T2, D3R (Homo sapiens, UniProt P35462).
T2 construct: purchased Perkin Elmer ES-173M400UA
Briefly: D3R competition binding ([3H]-spiperone). Particulars: mean±SEM of two experiments in duplicate; read-out: D3R binding affinity Ki. The method, then: samples were filtered and washed four times with 250 µl wash buffer (50 mM Tris-HCl, 0.9% NaCl, pH=7.4) before measuring in a microplate beta scintillation counter (Microbeta Trilux, PerkinElmer, Madrid, Spain). Three independent exp eriments were carried out to calculate Ki values (n=3).
Human A1AR competition binding experiments were carried out in multiscreen GF/C 96 -well plates (Millipore, Madrid, Spain) pretreated with assay buffer ( 20 mM Hepes, 100 mM NaCl, 10 mM MgCl2, 2 U/ml adeno sine deamina se, pH=7.4). Each well contained 5 µg of membranes from a CHO-A1AR cell line, 1 nM [3H]-DPCPX (137 Ci/mmol, 1 mCi/Ml, Perkin Elmer NET974001MC), and the compound studied. Non-specific binding was determined in the presence of R-PIA 10 µM (Sigma P4532). The reaction mixture (200 µl/well) was incubated at 25°C for 60 min. The samples were then filtered and washed four times with 250 µl wash buffer (20 mM Hepes, 100 mM NaCl, 10 mM MgCl2, pH=7.4) before measuring in a microplate beta scintillati on counter (Microbeta Trilux, PerkinElmer, Madrid, Spain). Two independent experiments were carried out to calculate K i values (n=2).
D3R competition binding experiments were carried out in polypropylene 96 -well plate s. Each well contained 2 µg of membranes from a D3R cell line (Perkin Elmer, ES-173M400UA, protein concentration=1000 µg/ml), 1 nM [3H]-spiperone (68 Ci/mmol, 1 mCi/ml, Perkin Elmer NET1187001MC), and the compound studied. Non-specific binding was determined in the presence of 1 µ M haloperidol (Sigma H1512). The reaction mixture (250 µl/well) was incubated at 25 °C for 60 min, after which 200 µL was transferred to GF/C 96-well plates (Millipore, Madrid, Spain) pretreated with 0. […]
D4R competition binding experiments were carried out in polypropylene 96 -well plate s. […] Non-specific binding was determined in the presence of 25 µM haloperidol (Sigma H1512). […]
H1R competition binding experiments were carried out in polypropylene 96-well plates. […] Non-specific binding was determined in the presence of 10 µM triprolidine (T6764, Sigma Aldrich). […]

The target in a further experiment is T3, H1R (Homo sapiens, UniProt P35367).
T3 construct: expressed in transfected cells; host or cells: CHO-H1R cell line (membranes)
Briefly: H1R competition binding ([3H]pyrilamine). To be noted: for H1R % displacement at 10 µM: 10 µM compound, n=2. The method, then: H1R competition binding experiments were carried out in polypropylene 96-well plates. Each well contained 50 µg of membranes from a CHO-H1R cell line (protein concentration=3860 µg/ml), 4 nM [3H]pyrilamine (20. 1 Ci/mmol, 1 mCi/ml, Perkin Elmer NET594250UC ), and the compound studied. Non-specific binding was determined in the presence of 10 µM triprolidine (T6764, Sigma Aldrich). The reaction mixture (250 µl/well) was incubated at 27 °C for 60 min, after which 200 µL was transferred to GF/B 96 -well plates (Millipore, Madrid, Spain) pretreated with 0. 1% Tween 20 and assay b uffer (Na+ / K+ phosphate buffer pH=7. 4).
The samples were then filtered and washed fou r times with 250 µl wash buffer (Na+/K+ phosphate buffer, pH=7.4), after which 30 µL Universol (MP Biomedicals, Spain) was added […]
and measurements were performed in a microplate beta scintillation counter (Microbeta Trilux, PerkinElmer, Madrid, Spain). Two independent experiments were carried out to calculate Ki values (n=2).
Data were adjusted to non-linear fitting by using Prism V2.1 (GraphPad Inc, Chicago, USA) and Ki values were calculated by using the Cheng-Prusoff equation25. […]
KB=I C50/(1+([NECA]/EC50 NECA)). […]

T1 sequence (P14416 whole entry): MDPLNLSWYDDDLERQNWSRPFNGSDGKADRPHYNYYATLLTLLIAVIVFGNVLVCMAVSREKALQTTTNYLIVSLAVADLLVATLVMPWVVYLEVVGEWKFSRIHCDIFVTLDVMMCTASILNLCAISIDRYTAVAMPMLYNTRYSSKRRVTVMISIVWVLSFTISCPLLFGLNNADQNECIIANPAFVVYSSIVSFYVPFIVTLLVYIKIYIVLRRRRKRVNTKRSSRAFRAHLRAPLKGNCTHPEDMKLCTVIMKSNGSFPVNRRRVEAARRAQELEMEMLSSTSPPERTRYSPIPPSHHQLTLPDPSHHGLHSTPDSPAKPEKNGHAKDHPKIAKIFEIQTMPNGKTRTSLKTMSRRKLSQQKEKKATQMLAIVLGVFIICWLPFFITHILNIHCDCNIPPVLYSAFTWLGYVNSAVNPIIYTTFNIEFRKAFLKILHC
T3 sequence (P35367 whole entry, species assumed): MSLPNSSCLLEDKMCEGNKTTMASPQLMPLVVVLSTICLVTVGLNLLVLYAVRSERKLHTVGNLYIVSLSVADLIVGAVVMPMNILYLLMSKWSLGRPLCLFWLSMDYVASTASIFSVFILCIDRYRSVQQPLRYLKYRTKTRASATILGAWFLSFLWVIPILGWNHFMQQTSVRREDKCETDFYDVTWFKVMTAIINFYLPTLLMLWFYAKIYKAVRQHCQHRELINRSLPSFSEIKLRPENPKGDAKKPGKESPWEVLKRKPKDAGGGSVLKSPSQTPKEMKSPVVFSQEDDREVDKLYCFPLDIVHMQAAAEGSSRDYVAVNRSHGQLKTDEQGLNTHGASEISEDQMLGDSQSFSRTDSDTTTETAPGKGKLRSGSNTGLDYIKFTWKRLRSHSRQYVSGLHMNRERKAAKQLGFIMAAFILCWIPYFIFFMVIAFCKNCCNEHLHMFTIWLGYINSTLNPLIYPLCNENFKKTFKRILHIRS
T2 sequence (P35462 whole entry): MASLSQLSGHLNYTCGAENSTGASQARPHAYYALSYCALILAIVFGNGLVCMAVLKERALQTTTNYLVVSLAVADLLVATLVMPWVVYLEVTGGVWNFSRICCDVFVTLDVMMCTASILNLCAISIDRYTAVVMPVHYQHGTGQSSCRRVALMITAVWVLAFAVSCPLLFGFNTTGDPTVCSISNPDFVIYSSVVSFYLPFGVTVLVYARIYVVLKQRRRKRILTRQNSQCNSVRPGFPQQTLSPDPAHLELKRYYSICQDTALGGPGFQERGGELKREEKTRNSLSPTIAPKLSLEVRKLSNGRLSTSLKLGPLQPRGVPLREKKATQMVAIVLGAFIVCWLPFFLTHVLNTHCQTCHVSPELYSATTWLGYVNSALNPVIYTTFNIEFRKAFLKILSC

A word on the Ki: it is a dissociation constant, usually derived from enzyme kinetics or from competition with a known ligand. With `CCCN(CCCCC(=O)Nc1nc2c(OC)cccc2s1)C1Cc2ccccc2C1` [Compound 26], the Ki was 0.23 ± 0.02 µM on Human D2R and 0.021 ± 0.002 µM on D3R.
As for `CCCN(CCCCC(=O)Nc1nc2c(Br)cccc2s1)C1Cc2ccccc2C1` [Compound 27], the Ki on Human D2R is 0.53 ± 0.18 µM. Further, the “H1R % displacement at 10 µM” value on H1R stood at 40 ± 1%.
Regarding `CCCN(CCCCC(=O)Nc1nc2c(OC)ccc(OC)c2s1)C1Cc2ccccc2C1` [Compound 30], the Ki was 0.37 ± 0.03 µM at Human D2R; 0.056 ± 0.007 µM at D3R; > 10 µM on H1R (mean±SEM of two experiments in duplicate, read-out: H1R binding affinity Ki). For the same molecule, the “H1R % displacement at 10 µM” value on H1R came to 40 ± 3%.
For `CCN(CCCCC(=O)Nc1nc2c(Br)cccc2s1)C1Cc2ccccc2C1` [Compound 22], the Ki at Human D2R stood at 0.34 ± 0.04 µM; on D3R, 0.021 ± 0.006 µM. Besides, on H1R, the “H1R % displacement at 10 µM” value came to 12 ± 3%.
